Data set [1] is described as follows: Pharmacokinetic assay in mouse (IV 3 mg/kg, PO 10 mg/kg). The class given is in vivo. The following applies: Male CD1 mouse; for Mouse F: oral bioavailability; for Mouse F / half-life: PO 10 mg/kg; for half-life / Vd: plasma; for half-life: read-out: Mouse t1/2 (converted); for Vd: volume of distribution, read-out: Mouse Vss.
The nature of data set [2]: Metabolic stability in mouse liver microsomes (in vitro t1/2). The class given is in vitro ADME. The following applies: for half-life at 2 µM / Mouse microsome t1/2, min: mouse liver microsomes 0.5 mg/mL, 2 μM compound; for half-life at 2 µM: read-out: Mouse microsome t1/2, min; for Mouse microsome % 60 min: mouse liver microsomes. The method, boiled down:
(§1)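 Test compound (2 μM final) was added to NADPH-supplemented microsomes at 0.5 mg/mL protein and sampled over 60 min (0–60 min time points). In vitro t1/2 was calculated as −0.693/k, with k the slope of ln percent parent remaining, measured by LC-MS/MS, against time.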

The nature of data set [3]: Metabolic stability in rat liver microsomes (in vitro t1/2). The class given is in vitro ADME. The following applies: for half-life at 2 µM: read-out: Rat microsome t1/2, min; for Rat microsome % 60 min: rat liver microsomes. The method, boiled down: as §1
(In general: Liver microsomes are vesicles of endoplasmic reticulum, rich in cytochrome P450 enzymes.)

Data set [4] concerns the target MCT4 (Homo sapiens (Human), UniProt O15427). Briefly: Assay 3: MCT4-mediated lactate transport in MDA-MB-231 breast cancer cells. The class given is cell-based. The following applies: MDA-MB-231 cells; lactate transport. The method, boiled down:
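Read-out is BCECF fluorescence tracking the intracellular pH shift from MCT4-mediated lactate/H+ co-transport. Before measurement, MDA-MB-231 cells take up BCECF-AM for 5 min at 37° C, then are washed into Tyrode's Solution, pH 7.4.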

Data set [5] can be described thus: Adjuvant-induced arthritis model in rat: Difference of Weight Bearing test (DWB). The class given is in vivo. The following applies: SD rat, CFA-induced arthritis; PO 3 days post CFA; compared to Dexamethasone.
In data set [6] the target is MCT1 (Homo sapiens (Human), UniProt P53985). As to the kind of experiment: Assay 4: MCT1-mediated lactate transport in BT20 breast cancer cells. The class given is cell-based. The following applies: Table 27. The method, boiled down:
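Transport started with 10 mM L-lactate on BCECF-loaded BT20 cells in Tyrode's Solution, pH 7.4. Dye loading: BCECF-AM ester (30 mM DMSO stock), 5 min at 37° C, then one wash.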

The nature of data set [7]: Adjuvant-induced arthritis model in rat: Mechanical Allodynia test (MA, Von Frey). The class given is in vivo. The following applies: SD rat, CFA-induced arthritis; PO 3 days post CFA; compared to Dexamethasone.
A short description of data set [8]: Pharmacokinetic assay in rat (IV 3 mg/kg, PO 10 mg/kg). The class given is in vivo. The following applies: Male Sprague-Dawley rat; for Rat F: oral bioavailability; for Rat F / half-life: PO 10 mg/kg; for half-life / Vd: plasma; for half-life: read-out: Rat t1/2 (converted); for Vd: volume of distribution, read-out: Rat Vss.
A short description of data set [9]: Metabolic stability in human liver microsomes (in vitro t1/2). The following applies: for half-life at 2 µM: read-out: Human microsome t1/2, min; for Human microsome % 60 min: human liver microsomes. The class given is in vitro ADME. The method, boiled down: as §1
[10] abbreviates: rat liver microsomes 0.5 mg/mL, 2 μM compound.
Setting [11] is: human liver microsomes 0.5 mg/mL, 2 μM compound.

In general, IC50 refers to the point on the concentration scale where inhibition reaches its midpoint. The low end stands for inhibition by little substance, the high end for a need for much substance.

Sequence of MCT1 (P53985 whole entry): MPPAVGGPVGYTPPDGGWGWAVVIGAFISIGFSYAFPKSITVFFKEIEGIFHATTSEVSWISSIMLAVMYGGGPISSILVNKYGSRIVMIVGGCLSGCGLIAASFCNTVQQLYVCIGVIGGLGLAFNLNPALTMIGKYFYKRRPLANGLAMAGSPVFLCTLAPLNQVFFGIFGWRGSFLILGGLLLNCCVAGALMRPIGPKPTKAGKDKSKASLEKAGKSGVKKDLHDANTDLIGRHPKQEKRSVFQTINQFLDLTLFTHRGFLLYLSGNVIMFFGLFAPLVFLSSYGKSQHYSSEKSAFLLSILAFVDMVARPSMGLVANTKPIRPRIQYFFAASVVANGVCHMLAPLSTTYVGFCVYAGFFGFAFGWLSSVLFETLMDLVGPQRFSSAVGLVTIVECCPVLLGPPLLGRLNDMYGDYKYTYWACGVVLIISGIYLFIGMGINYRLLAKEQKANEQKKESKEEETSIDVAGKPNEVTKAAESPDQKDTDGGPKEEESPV
Sequence of MCT1 (P35613 140-385 partner): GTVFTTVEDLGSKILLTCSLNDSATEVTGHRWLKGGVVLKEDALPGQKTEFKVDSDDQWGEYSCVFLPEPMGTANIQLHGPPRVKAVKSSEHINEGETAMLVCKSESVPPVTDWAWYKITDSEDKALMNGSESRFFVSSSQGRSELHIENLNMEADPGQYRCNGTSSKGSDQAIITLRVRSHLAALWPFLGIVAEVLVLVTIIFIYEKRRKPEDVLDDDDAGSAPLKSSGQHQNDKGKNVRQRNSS
Sequence of MCT4 (O15427 whole entry, looked up): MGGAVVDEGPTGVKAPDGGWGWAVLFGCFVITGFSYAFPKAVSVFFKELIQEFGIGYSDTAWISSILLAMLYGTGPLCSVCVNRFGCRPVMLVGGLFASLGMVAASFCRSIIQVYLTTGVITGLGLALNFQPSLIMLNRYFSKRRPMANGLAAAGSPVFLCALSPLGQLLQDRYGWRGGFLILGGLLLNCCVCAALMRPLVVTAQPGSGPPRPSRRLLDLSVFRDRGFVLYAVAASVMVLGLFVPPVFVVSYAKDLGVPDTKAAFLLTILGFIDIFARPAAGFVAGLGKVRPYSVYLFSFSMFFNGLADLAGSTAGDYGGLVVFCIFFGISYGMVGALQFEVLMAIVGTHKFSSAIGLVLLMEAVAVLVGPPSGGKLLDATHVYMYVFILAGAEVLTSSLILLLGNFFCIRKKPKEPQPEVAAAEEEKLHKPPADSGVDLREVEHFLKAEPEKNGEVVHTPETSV
Sequence of MCT4 (P35613 whole entry partner, looked up): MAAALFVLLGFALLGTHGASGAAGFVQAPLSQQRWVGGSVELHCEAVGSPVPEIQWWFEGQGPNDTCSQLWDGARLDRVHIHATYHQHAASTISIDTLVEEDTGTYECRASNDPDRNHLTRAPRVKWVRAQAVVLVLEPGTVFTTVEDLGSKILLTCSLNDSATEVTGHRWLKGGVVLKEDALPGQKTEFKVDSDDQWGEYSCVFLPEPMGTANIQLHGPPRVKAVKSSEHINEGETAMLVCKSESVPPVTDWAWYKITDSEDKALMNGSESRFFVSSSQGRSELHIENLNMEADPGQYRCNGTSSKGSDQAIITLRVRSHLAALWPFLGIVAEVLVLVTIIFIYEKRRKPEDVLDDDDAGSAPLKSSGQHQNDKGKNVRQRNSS

`CC(C)(OCc1cc(-c2cccc(OC3CC3)c2)n(-c2ccccc2Cl)n1)C(=O)O` [Example 110, 2-([1-(2-Chlorophenyl)-5-(3-cyclo-propoxyphenyl)-1H-pyrazol-3-yl)methoxy)-2-methylpropanoic acid]: in [1], the “Mouse F” value is on record as 100%. The half-life is 26.7 h in data set [1] and 4.7 h in data set [8]. Besides, the Vd in [1] turned out to be 0.81 L/kg; in [8], 0.34 L/kg. In addition, the half-life at 2 µM in data set [2] stood at 3.72 h; in [3] (setting [10]) it was 9.15 h; in data set [9] (setting [11]), 39.6 h. In data set [2], the “Mouse microsome % 60 min” value is on record as 86%. Besides, the “Rat microsome % 60 min” value in data set [3] came out at 94%. For the same compound, the IC50 in data set [4] came to 20 nM; in [6] it was 30000 nM. The “Difference in Weight Bearing, Minimal Efficacious Dose” value (“Difference in Weight Bearing” for short) in data set [5] was 10 mg/kg. In [7], the “Mechanical Allodynia (Von Frey), Minimal Efficacious Dose” value (“Mechanical Allodynia (Von Frey)” below) is 10 mg/kg. In addition, in [8], the “Rat F” value came out at 84%. For the same compound, the “Human microsome % 60 min” value in [9] is on record as 99%.
Turning to `CCn1ncc2ccc(-c3cc(COC(C)(C)C(=O)O)nn3Cc3ccccc3Cl)cc21` [Example 150, 2-([1-[(2-Chlorophenyl)methyl]-5-(1-ethyl-1H-indazol-6-yl)-1H-pyrazol-3-yl]-methoxy)-2-methylpropanoic Acid], in data set [1], the “Mouse F” value worked out at 89%, the half-life was 4.9 h and the Vd worked out at 9.9 L/kg. In data set [2], the “Mouse microsome t1/2, min” value is on record as “∞” and the “Mouse microsome % 60 min” value is reported as 103%. Moreover, the half-life at 2 µM in data set [3] (setting [10]) turned out to be 28.6 h. Also, in data set [3], the “Rat microsome % 60 min” value is recorded as 98%. In data set [4], this compound returned a half-maximal inhibitory concentration (IC50) of 2.8 nM. The “Difference in Weight Bearing” value in data set [5] amounted to 10 mg/kg. Further, the midpoint of inhibition in [6], the IC50, lay at 25000 nM. Moreover, the “Mechanical Allodynia (Von Frey)” value in [7] is given as 10 mg/kg. For the same compound, in data set [8], the “Rat F” value is recorded as 43%, the half-life is 3.6 h and the Vd came out at 1.2 L/kg. In addition, in data set [9] (setting [11]), the half-life at 2 µM amounted to 5.68 h. Also, the “Human microsome % 60 min” value in data set [9] was determined as 90%.
For the compound `CC(C)COc1cccc(-c2cc(COC(C)(C)C(=O)O)nn2-c2cccc3cnn(C)c23)c1` [Example 170, 2-methyl-2-([1-(1-methyl-1H-indazol-7-yl)-5-[3-(2-methylpropoxy)phenyl]-1H-pyrazol-3-yl]methoxy]propanoic acid], in data set [1], the “Mouse F” value turned out to be 100%, the half-life is 2.6 h and the Vd was determined as 2 L/kg. Moreover, in [2], the “Mouse microsome t1/2, min” value is given as “∞” and the “Mouse microsome % 60 min” value amounted to 99%. The “Rat microsome t1/2, min” value in [3] (setting [10]) is “∞”. Moreover, the “Rat microsome % 60 min” value in data set [3] is recorded as 95%. In data set [4], this compound gave an IC50 of 2 nM. In data set [5], the “Difference in Weight Bearing” value is listed as 3 mg/kg. Further, in [6], the concentration for half-maximal inhibition (IC50) was 32000 nM. For the same compound, in data set [7], the “Mechanical Allodynia (Von Frey)” value was 3 mg/kg. Further, in [8], the “Rat F” value was found to be 18%, the half-life is 2.4 h and the Vd is 1.1 L/kg. For the same compound, the half-life at 2 µM in [9] (setting [11]) amounted to 7.85 h. Also, the “Human microsome % 60 min” value in data set [9] came out at 87%.
Regarding `CCn1ncc2ccc(-c3cc(CO[C@](C)(CC)C(=O)O)nn3Cc3ccccc3Cl)cc21` [Example 220, (2R)-2-([1-[(2-chlorophenyl)methyl]-5-(1-ethyl-1H-indazol-6-yl)-1H-pyrazol-3-yl]methoxy)-2-methylbutanoic acid], in data set [1], the “Mouse F” value is 100%, the half-life was 6.9 h and the Vd worked out at 1.7 L/kg. Moreover, in data set [2], the half-life at 2 µM turned out to be 17.3 h and the “Mouse microsome % 60 min” value is 102%. For the same compound, the half-life at 2 µM in data set [3] (setting [10]) stood at 4.87 h. The “Rat microsome % 60 min” value in data set [3] is given as 86%. The compound further showed an IC50 in [4] of 0.54 nM. The “Difference in Weight Bearing” value in data set [5] was found to be 3 mg/kg. The compound also registered an IC50 in data set [6] of 33000 nM. Also, in [7], the “Mechanical Allodynia (Von Frey)” value was found to be 3 mg/kg. In addition, in data set [8], the “Rat F” value is given as 29%, the half-life is 2.8 h and the Vd came out at 0.68 L/kg. The “Human microsome t1/2, min” value in data set [9] (setting [11]) was “∞”. Besides, the “Human microsome % 60 min” value in data set [9] is 105%.
With `CCn1ncc2ccc(-c3cc(COC(C)(C)C(=O)O)nn3-c3ccccc3N3CCCC3)cc21` [Example 229], the “Mouse F” value in [1] was 100%. In addition, the half-life in [1] is 4.2 h; in data set [8], 2.7 h. Besides, the Vd in data set [1] amounted to 1.9 L/kg; in data set [8], 1 L/kg. In addition, the figures for the half-life at 2 µM in [2], in [3] (setting [10]) and in [9] (setting [11]) were 3.27 h, 1.82 h and 1.72 h, respectively. Moreover, in data set [2], the “Mouse microsome % 60 min” value is 81%. Besides, the “Rat microsome % 60 min” value in data set [3] came to 69%. Further, the IC50 in data set [4] came out at 1.9 nM; in data set [6] it was 42000 nM. Moreover, the “Difference in Weight Bearing” value in data set [5] was found to be 3 mg/kg. For the same compound, the “Mechanical Allodynia (Von Frey)” value in data set [7] is given as 3 mg/kg. Moreover, in data set [8], the “Rat F” value is 100%. For the same compound, the “Human microsome % 60 min” value in data set [9] was 64%.
With `CC(C)(OCc1cc(-c2cccc(OC3CC3)c2)n(-c2ccccc2N2CCC2)n1)C(=O)O` [Example 232, 2-([1-[2-(Azetidin-1-yl)phenyl]-5-(3-cyclo-propoxyphenyl)-1H-pyrazol-3-yl]methoxy)-2-methylpropanoic acid], in data set [1], the “Mouse F” value is 56%, the half-life was 3.1 h and the Vd was determined as 0.21 L/kg. For the same compound, in data set [2], the half-life at 2 µM came to 1.22 h and the “Mouse microsome % 60 min” value is reported as 59%. Besides, the half-life at 2 µM in data set [3] (setting [10]) came out at 1.17 h. Besides, the “Rat microsome % 60 min” value in data set [3] is given as 50%. In [4], this compound showed a 50% inhibitory concentration (IC50) of 2.1 nM. The “Difference in Weight Bearing” value in data set [5] turned out to be 1 mg/kg. In [6], this compound returned an IC50 of 29000 nM. Also, in data set [7], the “Mechanical Allodynia (Von Frey)” value is 1 mg/kg. In data set [8], the “Rat F” value is 52%, the half-life was 2.6 h and the Vd is 0.15 L/kg. Further, in [9] (setting [11]), the half-life at 2 µM was 1.62 h. Moreover, the “Human microsome % 60 min” value in data set [9] stood at 65%.
